{"source": "patent US20210147866A1", "about": "“PLANTS HAVING INCREASED TOLERANCE TO HERBICIDES” (BASF SE, priority 2017, published 2021)", "key": {"[1]": {"test_system": "Arabidopsis thaliana MC24", "assay": "Greenhouse dose response, post-emergence spray of untransformed motherline", "assay_type": "in vivo", "settings": "9 leaf stage, rates from 0.8 to 100 g/ha, 14 days after treatment (FIG. 2)"}, "[2]": {"test_system": "Transgenic MC24 plants expressing the short Scenedesmus obliquus HPPD (SEQ ID NO:50)", "assay": "Greenhouse post-emergence herbicide tolerance test, transgenic lines expressing short Scenedesmus obliquus HPPD (F363I, amino acids 442-477 deleted)", "assay_type": "in vivo, Arabidopsis thaliana", "text": "(§1) Additionally, T1 and T2 transgenic Arabidopsis plants can be tested for improved tolerance to HPPD-inhibiting benzamide herbicides in a greenhouse studies. Herbicide injury scoring is done 2-3 weeks after treatment and is rated on a scale of 0 to 100%, 0% being no injury and 100% being complete death.\n(§2) The seedlings are then transfered to pots with a diameter of 10 cm and grown in soil to the nine leaf stage.\n(§3) Preselected transgenic Arabidopsis plants expressing heterologous Scenedesmus obliquus HPPD mutant enzymes as defined in Seq ID No. 48 and Seq ID No. 50 are tested for tolerance against HPPD-inhibiting 4-bromo-3-(dicyclopropylcarbamoylamino)-6-fluoro-2-methyl-N(1-methyltetrazol-5-yl) benzamide herbicide in greenhouse experiments.\n(§4) Transgenic lines are tested expressing heterologous Scenedesmus obliquus HPPD coding sequences under control of the constitutive parsley ubiquitin promoter and the nos terminator. One construct contains the full length Scenedesmus obliquus HPPD enzyme (Seq ID No. 47) while in a second construct the naturally occurring C-terminal insertion of 36 amino acids at position 442-477 is deleted (Seq ID No. 49). Both coding sequences carry the mutation F363I.\n(§5) Broadleaf plants are more sensitive to HPPD inhibitors when applied post-emergence as compared to a pre-emergence testing. Therefore, transgenic lines are tested in a post emergence setting at about the nine leaf stage.\n(§6) For the herbicide treatment of transgenic lines 4-bromo-3-(dicyclopropylcarbamoylamino)-6-fluoro-2-methyl-N-(1-methyltetrazol-5-yl) benzamide is applied at use rates of 25, 50 and 100 g/ha (see FIG. 3)\n(§7) Treated plants are assessed 14 days after treatment (DAT) in the post-emergence setting."}, "[3]": {"test_system": "Transgenic MC24 plants expressing the Scenedesmus obliquus HPPD full length coding sequence (SEQ ID NO: 47)", "assay": "Greenhouse post-emergence herbicide tolerance test, transgenic lines expressing full length Scenedesmus obliquus HPPD (F363I)", "assay_type": "in vivo, Arabidopsis thaliana", "text": "as §1, §2, §3, §4, §5, §6, §7"}}}
{"smiles": "Cc1c(NC(=O)N(C2CC2)C2CC2)c(Br)cc(F)c1C(=O)Nc1nnnn1C", "note": "[4-bromo-3-(dicyclopropylcarbamoylamino)-6-fluoro-2-methyl-N-(1-methyltetrazol-5-yl) benzamide]", "values": [{"measurement": "sensitivity of untransformed MC24 plants towards the herbicide (plant death)", "setting": "[1]", "result": "die even at the lowest rate"}, {"measurement": "herbicide tolerance of transgenic lines", "setting": "[2]; short S. obliquus HPPD F363I, 25 to 100 g/ha, post-emergence, 9 leaf stage, 14 DAT (FIG. 3)", "result": "show herbicide tolerance"}, {"measurement": "herbicidal injury of transgenic lines", "setting": "[2]; short S. obliquus HPPD F363I, 50 to 100 g/ha, post-emergence, 14 DAT (FIG. 3)", "result": "Little herbicidal injury"}, {"measurement": "injury of plants with S. obliquus HPPD gene carrying F363I (overall assessment)", "setting": "[2]; short construct, shown rates 25, 50 and 100 g/ha, 14 days after treatment", "result": "very little to no injury"}, {"measurement": "herbicide tolerance of full length sequence compared to HPPD not containing the C-terminal loop", "setting": "[3]; 25-100 g/ha, 14 days after treatment", "result": "slightly better herbicide tolerance"}, {"measurement": "herbicide tolerance of transgenic lines", "setting": "[3]; full length S. obliquus HPPD F363I, 25-100 g/ha, post-emergence, 9 leaf stage, 14 DAT (FIG. 4)", "result": "show herbicide tolerance"}, {"measurement": "injury of plants with S. obliquus HPPD gene carrying F363I (overall assessment)", "setting": "[3]; full length construct, shown rates 25, 50 and 100 g/ha, 14 days after treatment", "result": "very little to no injury"}]}
